Assay results as given in patent US20240336567A1, “PESTICIDAL AND HERBICIDAL COMPOUNDS AND METHODS OF USE THEREOF” (AG Plenus Ltd, priority 2021, published 2024).
Like-named read-outs stand apart in the source and are kept apart here.

What was measured:
Arabidopsis thaliana [1] = assay: HTPS - Dicot - Pre-emergence; assay type: in vivo; conditions: N/A: not active; for Emax: read-out: HTPS - Dicot - Pre Max effect
Procedure: (§1) Arabidopsis thaliana seeds were sown in 96 well plates filled with irrigated Sweet sand (10%>clay) that is washed from salts and minerals using tap water. 5-10 seeds were sown in the center of each well. 7-8 days post sowing, at 2 true leaves stage, thinning out was performed to ensure that compound application is done on a single plant per well. The plates were placed in a controlled greenhouse in a random order inside a bath which allows flooding irrigation with tap water supplemented with a fertilizer. Applied compounds were dissolved into a final solution of 50% acetone, 49.9% DDW, 0.1% tween-20. A 96 well plate was used as a stock plate for preparing application solutions for 8 repeats. Each row contained different concentrations per chemical. Maximal concentration for application was 1.5 Kg/Ha and dilution factor is 2.5. Chemical application was performed one day after thinning out in a chemical hood. 5 μL applied on first two true leaves in each well using 12 channel pipettes. Data collection: RGB (red, green, blue) data for green area per well was documented using camera. Data is collected at a few time points during the experiment: one day after thinning and before chemical application, two-, six- or nine-days post application. During the last two documentations, visual phenotyping was performed. Data analysis: Given RGB results and visual phenotype scores, a student t-test conducted to compare between treatment and control performance for continuous data (RGB) and Fisher exact test to analyze the non-continuous data (phenotypic scores). Dose-Response curves are generated for each treatment to infer ED50 and max. inhibition parameters, using treatment's log concentration range as the […] variable and normalized green area. These experiments are conducted similarly except that either Arabidopsis thaliana or Eragrostis teff seeds were sowed (5-10 or 5-7, respectively), plant thinning out was not performed, compound dissolved into a final solution of 50% acetone, 49.9% DDW, compound application was done at 30 μL volume per well directly on sowed soil before plant emergence and data was collected 10 or 7 days after chemical application on dicot or monocot plants, respectively. Plate imaging performed at 11 and 18 DAA. RGB data for green area per well was documented and used to extract % inhibition. Dose-Response curves were built for each treatment to infer ED50, ED75 and ED90 parameters, using treatment's log concentration range as the independent variable and normalized green area as the dependent variable. Treatments were compared to controls performance given RGB results and using student's t-test (p-val≤0.05).

POAAN = assay: In-planta LTP pre-emergence, visual phenotype; assay type: in vivo, Poa annua; conditions: monocot; for pest or weed control at 2000 g/ha: Poa annua, 432 h, read-out: IG Inhibited growth (% effect)
Procedure: (§2) A basic panel of 8 weed species (Table 3) were sowed in 4×4×7 cm plastic pots containing inert sand (Sweet sand), intensively washed using osmosis water. Each specie was sowed in a separate pot. In each pot 10-15 seeds were sowed according to the specie viability. Sowing was performed one day before application. The plants were grown for 21 days in a controlled greenhouse (26±2° C. day 20±2° C. night). Hood irrigation (tap water+Shefer 5:3:8 8 mM) was given at a 50% water content by weight. Compounds were soluble in water (DDW), and commercial herbicide control was soluble in formulation B (Table 4). Application was conducted with an industrial sprayer (TeeJet 6502E nozzle) at a rate of 2 kg/ha and spray volume of […]. Pre-emergence advanced dose response experiment application was conducted at six rates between 1-0.0312 kg/ha and spray volume of […]. Percentage of emergence was evaluated at 15 DAA. Visual phenotyping was recorded using a scale of 0-6 (0: no visible effect, 6: maximum effect) at 18 DAA. All experiments included an untreated control, a solvent control and a positive control (commercial herbicide A.I.). Statistical analysis for visual phenotyping determined by a median value of ≥3.5 and Fisher test (pval≤0.05). Statistical analysis for plant emergence determined by % emergence ≥50 and T test (pval≤0.05), as well as Wilcox test (pval≤0.05).

Arabidopsis thaliana [2] = assay: HTPS (high throughput on soil) - Dicot - Post-emergence; assay type: in vivo; conditions: N/A: not active; for Emax: read-out: HTPS - Dicot - Post Max effect; for HTPS - Dicot - Post ED50: from normalized green area
Procedure: as §1, with “area.” for “area. These experiments are conducted similarly except that either Arabidopsis thaliana or Eragrostis teff seeds were sowed (5-10 or 5-7, respectively), plant thinning out was not performed, compound dissolved into a final solution of 50% acetone, 49.9% DDW, compound application was done at 30 μL volume per well directly on sowed soil before plant emergence and data was collected 10 or 7 days after chemical application on dicot or monocot plants, respectively.”

SETVI = assay: In-planta LTP pre-emergence, visual phenotype; assay type: in vivo, Setaria viridis; conditions: monocot; for pest or weed control at 2000 g/ha: Setaria viridis, 432 h
Procedure: as §2

AMAPA [3] = assay: In-planta LTP pre-emergence, visual phenotype; assay type: in vivo, Amaranthus palmeri; conditions: dicot; for pest or weed control at 2000 g/ha: Amaranthus palmeri, 432 h, read-out: IG Inhibited growth (% effect)
Procedure: as §2

[4] = in vitro thermal shift (binding of compound to the target); conditions: thermal shift caused by binding of the compound to the (unnamed) target
Eragrostis teff = assay: HTPS - Monocot - Pre-emergence; assay type: in vivo; conditions: N/A: not active; for Emax: read-out: HTPS - Monocot - Pre Max effect
Procedure: as §1

AMAPA [5] = assay: In-planta LTP post-emergence, visual phenotype; assay type: in vivo, Amaranthus palmeri; conditions: dicot
Procedure: A basic panel of eight weed species (Table 3) sowed in 4×4×7 cm plastic pots containing a garden mix (klasmann). Each specie was sowed in a separate pot. In each pot, 10-15 seeds were sowed according to the specie viability. Timing of application determined at a 1-2 true leaf stage. The plants grew for 30 days in a controlled greenhouse (26±2° C. day, 20±2° C. night). Hood irrigation (tap water+Shefer 5:3:8 8 mM) was given at a 50% water content by weight. Two days before application, the tested plants thinned down to three plants per pot. Compounds were soluble in water (DDW), and commercial herbicide control was soluble in formulation B (Table 4). Before application, 1% (v/v) crop oil and 0.02% (v/v) surfactant (Tergitol™ 15-5-7) were added to the solution. Application was conducted with an industrial sprayer (TeeJet 6502E nozzle) at a rate of 2 kg/ha and spray volume of […]. Plants were evaluated at 3 time points (4, 8, 12 days after application (DAA)). At each time point, visual phenotyping was recorded using a scale of 0-6 (0: no visible effect, 6: maximum effect). At 12 DAA, plants foliage was harvested, dried and weighed for dry weight analysis.
Post-emergence advanced dose response experiment included 4 species: SETVI, ECHCO, AMAPA, ABUTH (Tables 3, 5). Application was conducted at six rates between 0.6-0.0187 kg/ha and spray volume of […]. Plants were evaluated at 4 time points (6, 12, 18 and 26 DAA). At each time point, visual phenotyping was recorded using a scale of 0-6 (0: no visible effect, 6: maximum effect). At 26 DAA, plants foliage was harvested, dried and weighed for dry weight analysis.
Post-emergence advanced wide panel experiment included 24 weed species (Table 5). Application was conducted at 2 rates of 2 kg/ha and 0.25 kg/ha and spray volume of […]. Visual phenotyping was recorded at 4, 11, 17 and 20 DAA using a scale of 0-6 (0: no visible effect, 6: maximum effect). At 21 DAA, plants foliage was harvested, dried, and weighed for dry weight analysis. All experiments included an untreated control, a solvent control, and a positive control (commercial herbicide A.I.). Statistical analysis for visual phenotyping determined by a median value of ≥3.5 and Fisher test (pval≤0.05). Statistical analysis for dry weight determined by % inhibition ≥50 and T test (pval≤0.05), as well as Wilcox test (pval≤0.05).

ABUTH = assay: In-planta LTP pre-emergence, visual phenotype; assay type: in vivo, Abutilon theophrasti; conditions: dicot
Procedure: as §2

ALOMY = assay: In-planta LTP pre-emergence, visual phenotype; assay type: in vivo, Alopecurus myosuroides; conditions: monocot
Procedure: as §2

EPPHL = assay: In-planta LTP pre-emergence, visual phenotype; assay type: in vivo, Euphorbia heterophylla; conditions: dicot
Procedure: as §2

MATCA = assay: In-planta LTP pre-emergence, visual phenotype; assay type: in vivo, Matricaria chamomilla; conditions: dicot
Procedure: as §2

DIGSA = assay: In-planta LTP pre-emergence, visual phenotype; assay type: in vivo, Digitaria sanguinalis; conditions: monocot
Procedure: as §2

ECHCO = assay: In-planta LTP pre-emergence, visual phenotype; assay type: in vivo, Echinochloa colona; conditions: monocot
Procedure: as §2

SOLNI = assay: In-planta LTP pre-emergence, visual phenotype; assay type: in vivo, Solanum nigrum; conditions: dicot
Procedure: as §2

LOLPE = assay: In-planta LTP pre-emergence, visual phenotype; assay type: in vivo, Lolium perenne; conditions: monocot
Procedure: as §2

CHEAL = assay: In-planta LTP pre-emergence, visual phenotype; assay type: in vivo, Chenopodium album; conditions: dicot
Procedure: as §2

[6] = read-out: DE Disturbed emergence (% effect)
[7] = read-out: IG Inhibited growth (% effect)

SMILES: CC(CN)Oc1cccc(C(=O)O)c1 (stereo not drawn) [Compound 102]
- HTPS - Dicot - Pre ED50 (Arabidopsis thaliana [1]): 127 g/ha
- Emax (Arabidopsis thaliana [1]): 100%
- pest or weed control at 2000 g/ha (POAAN): 60%
- Emax (Arabidopsis thaliana [2]): 92%
- HTPS - Dicot - Post ED50 (Arabidopsis thaliana [2]): 127 g/ha
- pest or weed control at 2000 g/ha (SETVI; [6]): 100%
- pest or weed control at 2000 g/ha (SETVI; [7]): 100%
- pest or weed control at 2000 g/ha (AMAPA [3]): 60%
- in vitro Thermal Shift [4]: 13 °C
- HTPS - Monocot - Pre ED50 (Eragrostis teff): 650 g/ha
- Emax (Eragrostis teff): 62%

SMILES: CC(N)COc1ccc(F)c(C(=O)O)c1 (stereo not drawn) [Compound 108]
- HTPS - Dicot - Pre ED50 (Arabidopsis thaliana [1]): 31 g/ha
- Emax (Arabidopsis thaliana [1]): 100%
- pest or weed control at 2000 g/ha (POAAN): 80%
- DE Disturbed emergence (% effect) (POAAN): DE (80) %
- Emax (Arabidopsis thaliana [2]): 100%
- HTPS - Dicot - Post ED50 (Arabidopsis thaliana [2]): 31 g/ha
- pest or weed control at 2000 g/ha (SETVI; [6]): 100%
- pest or weed control at 2000 g/ha (SETVI; [7]): 100%
- pest or weed control at 2000 g/ha (AMAPA [3]): 60%
- in vitro Thermal Shift [4]: 16 °C
- HTPS - Monocot - Pre ED50 (Eragrostis teff): 290 g/ha
- Emax (Eragrostis teff): 80%

SMILES: CC(N)COc1cc(Cl)cc(C(=O)O)c1 (stereo not drawn) [Compound 109]
- pest or weed control at 2000 g/ha (POAAN): 100%
- DE Disturbed emergence (% effect) (POAAN): DE (100), %
- BL Bleaching (% effect) (AMAPA [5]): BL (40) %
- pest or weed control at 2000 g/ha (SETVI; [6]): 100%
- pest or weed control at 2000 g/ha (AMAPA [3]): 60%
- in vitro Thermal Shift [4]: 14 °C
- HTPS - Monocot - Pre ED50 (Eragrostis teff): 681 g/ha
- Emax (Eragrostis teff): 80%

SMILES: CC(N)COc1cccc(C(=O)O)n1 (stereo not drawn) [Compound 116]
- BL Bleaching (% effect) (ABUTH): Bl (80), %
- DAB Disturbed apical bud (% effect) (ABUTH): DAB (80) %
- IG Inhibited growth (% effect) (ABUTH): IG (80), %
- IG Inhibited growth (% effect) (ALOMY): IG (100), %
- W Wilting (% effect) (ALOMY): W^5 (100) %
- HTPS - Dicot - Pre ED50 (Arabidopsis thaliana [1]): 10 g/ha
- Emax (Arabidopsis thaliana [1]): 100%
- DE Disturbed emergence (% effect) (POAAN): DE (100) %
- BL Bleaching (% effect) (EPPHL): BL (80), %
- DAB Disturbed apical bud (% effect) (EPPHL): DAB (80) %
- IG Inhibited growth (% effect) (EPPHL): IG (60), %
- Emax (Arabidopsis thaliana [2]): 100%
- HTPS - Dicot - Post ED50 (Arabidopsis thaliana [2]): 3 g/ha
- BL Bleaching (% effect) (MATCA): BL^4 (40), %
- DAB Disturbed apical bud (% effect) (MATCA): DAB (60) %
- IG Inhibited growth (% effect) (MATCA): IG (80), %
- DE Disturbed emergence (% effect) (DIGSA): DE (100) %
- DE Disturbed emergence (% effect) (ECHCO): DE (100) %
- DAB Disturbed apical bud (% effect) (SOLNI): DAB^2 (80) %
- IG Inhibited growth (% effect) (SOLNI): IG (80), %
- pest or weed control at 2000 g/ha (SETVI; [6]): 100%
- DE Disturbed emergence (% effect) (LOLPE): DE (100) %
- pest or weed control at 2000 g/ha (AMAPA [3]): 80%
- C Chlorosis (% effect) (AMAPA [3]): C^3 (60), %
- DAB Disturbed apical bud (% effect) (AMAPA [3]): DAB (100) %
- in vitro Thermal Shift [4]: 16 °C
- HTPS - Monocot - Pre ED50 (Eragrostis teff): 10 g/ha
- Emax (Eragrostis teff): 100%
- DAB Disturbed apical bud (% effect) (CHEAL): DAB (80) %
- IG Inhibited growth (% effect) (CHEAL): IG (80), %

SMILES: CC(N)COc1cncc(C(=O)O)n1 (stereo not drawn) [Compound 148]
- DRD Disturbed root development (% effect) (ALOMY): DRD (60) %
- Emax (Arabidopsis thaliana [1]): 28%
- pest or weed control at 2000 g/ha (POAAN): 40%
- DRD Disturbed root development (% effect) (POAAN): DRD (40) %
- Emax (Arabidopsis thaliana [2]): 17%
- DE Disturbed emergence (% effect) (MATCA): DE (40) %
- pest or weed control at 2000 g/ha (SETVI; [6]): 100%
- pest or weed control at 2000 g/ha (SETVI; [7]): 100%
- DRD Disturbed root development (% effect) (SETVI): DRD^7 (100), %
- in vitro Thermal Shift [4]: 12 °C
- Emax (Eragrostis teff): 100%
